According to PubChem BioAssay (NCI):
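1) Cells in 96-well plates. 2) Compound, 48 h, 5 concentrations. 3) Linear interpolation between surrounding doses. 4) Unreached endpoint = highest concentration. Definition used: TGI = concentration required for complete inhibition of growth.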

How the values were obtained:
Assay in all cases: NCI tumour cell line growth inhibition, 48 h
ACHN renal = test system: ACHN renal
CCRF-CEM leukemia = test system: CCRF-CEM leukemia
DU-145 prostate = test system: DU-145 prostate
HOP-62 NSCLC = test system: HOP-62 NSCLC
KM12 colon = test system: KM12 colon
MALME-3M melanoma = test system: MALME-3M melanoma
OVCAR-5 ovarian = test system: OVCAR-5 ovarian
SF-295 CNS = test system: SF-295 CNS
SNB-19 CNS = test system: SNB-19 CNS
UO-31 renal = test system: UO-31 renal

SMILES | TGI (ACHN renal) [µM] | TGI (CCRF-CEM leukemia) [µM] | TGI (DU-145 prostate) [µM] | TGI (HOP-62 NSCLC) [µM] | TGI (KM12 colon) [µM] | TGI (MALME-3M melanoma) [µM] | TGI (OVCAR-5 ovarian) [µM] | TGI (SF-295 CNS) [µM] | TGI (SNB-19 CNS) [µM] | TGI (UO-31 renal) [µM]
N#Cc1sc2c(c1OC(=O)c1ccc(C(F)(F)F)cc1)c(=O)n(-c1ccccc1)c(=S)n2-c1ccccc1 | 93.5 | 36.7 | > 100 | > 100 | > 100 | 84.4 | > 100 | 71.4 | > 100 | –
Cc1cc(N(C)C)c2ccccc2[n+]1CCCCCCCCCC[n+]1c(C)cc(N(C)C)c2ccccc21 | 6.34 | 13.5 | 16.2 | – | 1.61 | > 41.6 | 15.6 | 8.95 | 8.19 | 13.1
O=C(CN1C(=O)CC(c2ccccc2)(c2ccccc2)C1=O)N1CCN(CCO)CC1 | > 100 | > 100 | > 100 | > 100 | > 100 | – | > 100 | > 100 | > 100 | > 100
CCOC(=O)/C=C1/C(CCCOCc2ccccc2)C2CCCC23CC2(CCN13)OCCO2 (stereo not given) | 83.9 | 64.4 | – | – | 58 | 33.9 | > 100 | > 100 | > 100 | 64.5
Cc1cc(C)nc(NC(=S)Nc2ccc([N+](=O)[O-])cc2)c1 | > 100 | > 100 | > 100 | > 100 | > 100 | – | – | – | > 100 | > 100
O=C1NC(O)CCN1C1OC(CO)C(O)C1O (stereo not given) | – | > 250 | – | > 250 | > 250 | > 250 | > 145 | > 250 | > 250 | > 250
COc1cc(Nc2ccc3c(c2)CCC3)nc(OC)n1 | 73.7 | > 100 | > 100 | > 100 | 91.9 | > 100 | > 100 | > 100 | > 100 | –
CCC(C)(C)n1c(C)nc2c1C(=O)c1ccccc1C2=O | > 100 | > 100 | – | > 100 | > 100 | 86.7 | – | > 100 | > 100 | 90.7
CN(C)Cc1cc(C(=O)/C=C/c2ccc([N+](=O)[O-])cc2)cc(CN(C)C)c1O | 10.2 | 21.4 | 23 | 19.5 | 29.7 | – | 34.5 | 38.9 | > 100 | > 100
CCOC(=O)/C(C(C)=O)=C(\OC(C)=O)c1ccncc1C(=O)O | > 100 | > 100 | > 100 | – | > 100 | > 100 | > 100 | > 100 | > 100 | > 100
COc1ccc(CC(N)=O)cc1OC | – | > 1250 | – | > 1250 | > 1250 | > 1250 | > 1250 | > 1250 | > 1250 | > 1250
O=C(OCC(Cl)(Cl)Cl)N1CC[C@H](C2CCCCC2)C1 | 36.7 | 36.1 | 31.8 | 32.8 | 31.7 | – | 34.4 | 31.5 | 37.5 | 35.3
COc1ccc(NC(=O)CSc2nnc(-c3ccc(NC(C)=O)cc3)o2)cc1 | 31.1 | > 100 | – | 68.6 | 30 | 40.8 | > 100 | 68.5 | – | 33
CNc1[nH]c(=S)nc2sc3c(c12)CCCC3 | > 75 | – | > 75 | > 75 | > 75 | > 75 | > 75 | > 75 | > 75 | > 75
Cc1cc(OP2(=O)NCc3ncccc3O2)ccc1Cl (stereo not given) | > 100 | > 100 | > 100 | > 100 | > 100 | – | > 100 | > 100 | > 100 | > 100
CCOC(=O)CNC(=O)NC12CC3CC(CC(C3)C1)C2 | – | > 550 | – | > 502 | > 449 | 420 | > 550 | > 550 | 548 | 512
O=C1CSC2(CC(/C=C/c3cccs3)=NN2c2cccc(S(=O)(=O)O)c2)N1c1nc2ccccc2s1 (stereo not given) | > 100 | > 100 | > 100 | – | > 100 | > 100 | > 100 | – | > 100 | > 100
CC(C)(C)c1ccc2c(c1)C#Cc1cc3c(cc1OCCCO2)C#Cc1cc(C(C)(C)C)ccc1OCCCO3 | > 100 | > 100 | > 100 | > 100 | > 100 | > 100 | > 100 | > 100 | > 100 | –
O=C(CNc1ccc(Cl)cc1Cl)Nn1c(-c2ccccc2)nc2ccccc2c1=O | 37.3 | 16.3 | 27.5 | – | – | 34.6 | 37.5 | 30.1 | 33.9 | 48.4
CCCN(CCC)c1c([N+](=O)[O-])cc(C(=O)N(CC)CC)cc1[N+](=O)[O-] | > 100 | 60.9 | – | > 100 | – | 40.5 | 94.3 | > 100 | > 100 | 63.1
CCOc1c(OC)cc(-c2nc3n(n2)C(=O)C(CC)S3)cc1OC (stereo not given) | > 10 | > 10 | > 10 | > 10 | > 10 | > 10 | > 10 | > 10 | > 10 | –
Nc1c(S(=O)(=O)c2ccc(Cl)cc2)c2nc3ccccc3nc2n2ccnc12 | > 100 | > 100 | – | – | > 100 | > 100 | > 100 | > 100 | > 100 | > 100
CN1Cc2c(nc(-c3ccccc3)c[n+]2[O-])N(C)C1 | > 100 | > 100 | – | > 100 | > 100 | > 100 | > 100 | > 100 | > 100 | > 100
